Measured values from patent publication US20250353820A1, “ANTIVIRAL PYRAZOLOPYRIDINONE COMPOUNDS” (Novartis AG, priority 2019, published 2025).
pEC50, pIC50: −log10 of the molar value. Like-named read-outs stand apart in the source and are kept apart here.

How the values were obtained:
[1] = test system: Luciferase-encoding HCMV (AD169 strain); test: microbe, parasite or virus in culture; format: cell-based
[2] = target: human CMV DNA polymerase UL54 (Human cytomegalovirus (strain AD169) (HHV-5) (Human herpesvirus 5), UniProt P08546); test: biochemical
[3] = target: human HSV DNA polymerase UL30 (Human herpesvirus 1 (strain 17) (HHV-1) (Human herpes simplex virus 1), UniProt P04293); test: biochemical; conditions: 20 minutes at room temperature
[4] = read-out: CMV-Luc Cellular EC50, NN-NHDF cells, MOI of 1, 72 hrs
[5] = HSV-polymerase Biochemical IC50, 625 pM HSV polymerase
[6] = 625 pM HSV polymerase, read-out: HSV-polymerase Biochemical IC50
[7] = 100 pM CMV polymerase, 60 minutes at room temperature, read-out: CMV-polymerase Biochemical IC50

Row | SMILES | pEC50 [1, 4] | pIC50 [3, 6] | further results
1 | CC1Cc2c(C(=O)NCc3ccc(C#N)cc3)nn(C)c2C(=O)N1CC1(S(C)(=O)=O)CC1 (single isomer, unassigned) [Example 41, (R)- or (S)—N-(4-cyanobenzyl)-1,5-dimethyl-6-((1-(methylsulfonyl)cyclopropyl)methyl)-7-oxo-4,5,6,7-tetrahydro-1H-pyrazolo[3,4-c]pyridine-3-carboxamide] | < 5.00 | – | –
2 | CC1Cc2c(C(=O)NCc3ccc(C#N)cc3)nn(C)c2C(=O)N1CC1(S(C)(=O)=O)CC1 (single isomer, unassigned) [Example 42, (R)- or (S)—N-(4-cyanobenzyl)-1,5-dimethyl-6-((1-(methylsulfonyl)cyclopropyl)methyl)-7-oxo-4,5,6,7-tetrahydro-1H-pyrazolo[3,4-c]pyridine-3-carboxamide] | 5.93 | – | –
3 | Cn1nc(C(=O)NCc2ccc(C#N)cc2)c2c1C(=O)N(CC1(S(=O)(=O)C(C)(C)COC(F)CO)CC1)CC2 (single isomer, unassigned) [Example 81, (R)- or (S)—N-(4-cyanobenzyl)-6-((1-((1-(1-fluoro-2-hydroxyethoxy)-2-methylpropan-2-yl)sulfonyl)cyclopropyl)methyl)-1-methyl-7-oxo-4,5,6,7-tetrahydro-1H-pyrazolo[3,4-c]pyridine-3-carboxamide] | 7.38 | – | –
4 | Cn1nc(C(=O)NCc2ccc(C#N)cc2)c2c1C(=O)N(CC1(S(=O)(=O)C(C)(C)COC(F)CN)CC1)CC2 (single isomer, unassigned) [Example 82, (R)- or (S)-6-((1-((1-(2-amino-1-fluoroethoxy)-2-methylpropan-2-yl)sulfonyl)cyclopropyl)methyl)-N-(4-cyanobenzyl)-1-methyl-7-oxo-4,5,6,7-tetrahydro-1H-pyrazolo[3,4-c]pyridine-3-carboxamide] | 7.54 | – | –
5 | Cn1nc(C(=O)NCc2ccc(C#N)cc2)c2c1C(=O)N(CC1(S(=O)(=O)C(C)(C)COC(F)CN)CC1)CC2 (single isomer, unassigned) [Example 83, (R)- or (S)-6-((1-((1-(2-amino-1-fluoroethoxy)-2-methylpropan-2-yl)sulfonyl)cyclopropyl)methyl)-N-(4-cyanobenzyl)-1-methyl-7-oxo-4,5,6,7-tetrahydro-1H-pyrazolo[3,4-c]pyridine-3-carboxamide] | 6.88 | – | –
6 | CC(O)COCC(C)(C)S(=O)(=O)C1(CN2CCc3c(C(=O)NCc4ccc(C#N)cc4)nn(C)c3C2=O)CC1 (single isomer, unassigned) [Example 91, (R)- or (S)—N-(4-Cyanobenzyl)-6-((1-((1-(2-hydroxypropoxy)-2-methylpropan-2-yl)sulfonyl)cyclopropyl)methyl)-1-methyl-7-oxo-4,5,6,7-tetrahydro-1H-pyrazolo[3,4-c]pyridine-3-carboxamide] | 7.12 | – | –
7 | CC(N)COCC(C)(C)S(=O)(=O)C1(CN2CCc3c(C(=O)NCc4ccc(Cl)cc4)nn(C)c3C2=O)CC1 (single isomer, unassigned) [Example 97] | – | – | pIC50 [2]: 9.00; pIC50 [3, 5]: 7.64
8 | CC(N)COCC(C)(C)S(=O)(=O)C1(CN2CCc3c(C(=O)NCc4ccc(Cl)cc4)nn(C)c3C2=O)CC1 (single isomer, unassigned) [Example 98] | – | – | pIC50 ([2]; read-out: CMV-polymerase Biochemical IC50, 100 pM CMV polymerase, 60 minutes at room temperature): 9.00; pIC50 [3, 5]: 7.59
9 | CC(N)COCC(C)(C)S(=O)(=O)C1(CN2CCc3c(C(=O)NCc4ccc(C#N)cc4)nn(C)c3C2=O)CC1 (single isomer, unassigned) [Example 99] | – | – | pIC50 [2]: 8.40; pIC50 [3, 5]: 7.20
10 | CC1=NOC(C(C)(C)S(=O)(=O)C2(CN3CCc4c(C(=O)NCc5ccc(C#N)cc5)nn(C)c4C3=O)CC2)C1 (single isomer, unassigned) [Example 111, (R)- or (S)—N-(4-Cyanobenzyl)-1-methyl-6-((1-((2-(3-methyl-4,5-dihydroisoxazol-5-yl)propan-2-yl)sulfonyl)cyclopropyl)methyl)-7-oxo-4,5,6,7-tetrahydro-1H-pyrazolo[3,4-c]pyridine-3-carboxamide] | 6.80 | – | –
11 | CC1=NOC(C(C)(C)S(=O)(=O)C2(CN3CCc4c(C(=O)NCc5ccc(C#N)cc5)nn(C)c4C3=O)CC2)C1 (single isomer, unassigned) [Example 112, (R)- or (S)—N-(4-Cyanobenzyl)-1-methyl-6-((1-((2-(3-methyl-4,5-dihydroisoxazol-5-yl)propan-2-yl)sulfonyl)cyclopropyl)methyl)-7-oxo-4,5,6,7-tetrahydro-1H-pyrazolo[3,4-c]pyridine-3-carboxamide] | 7.19 | – | –
12 | CC(O)CC(C)(C)S(=O)(=O)C1(CN2CCc3c(C(=O)NCc4ccc(C#N)cc4)nn(C)c3C2=O)CC1 (single isomer, unassigned) [Example 116, (R)- or (S)—N-(4-Cyanobenzyl)-6-((1-((4-hydroxy-2-methylpentan-2-yl)sulfonyl)cyclopropyl)methyl)-1-methyl-7-oxo-4,5,6,7-tetrahydro-1H-pyrazolo[3,4-c]pyridine-3-carboxamide] | 7.41 | – | –
13 | Cn1nc(C(=O)NCc2ccc(C#N)cc2)c2c1C(=O)N(CC1(S(=O)(=O)N3CCC(C)(O)C3)CC1)CC2 (single isomer, unassigned) [Example 131, (R)- or (S)-N-(4-Cyanobenzyl)-6-((1-((3-hydroxy-3-methylpyrrolidin-1-yl)sulfonyl)cyclopropyl)methyl)-1-methyl-7-oxo-4,5,6,7-tetrahydro-1H-pyrazolo[3,4-c]pyridine-3-carboxamide] | 6.65 | 6.79 | –
14 | Cn1nc(C(=O)NCc2ccc(C#N)cc2)c2c1C(=O)N(CC1(S(=O)(=O)C3CCOC3)CC1)CC2 (single isomer, unassigned) [Example 170] | – | 6.91 | pIC50 [2, 7]: 8.40
15 | COCC(C)(CO)S(=O)(=O)C1(CN2CCc3c(C(=O)NCc4ccc(C#N)cc4)nn(C)c3C2=O)CC1 (single isomer, unassigned) [Example 182, (R)- or (S)—N-(4-Cyanobenzyl)-6-((1-((1-hydroxy-3-methoxy-2-methylpropan-2-yl)sulfonyl)cyclopropyl)methyl)-1-methyl-7-oxo-4,5,6,7-tetrahydro-1H-pyrazolo[3,4-c]pyridine-3-carboxamide] | 7.30 | – | –
16 | Cn1nc(C(=O)NCc2ccc(C#N)cc2)c2c1C(=O)N(CC1(S(=O)(=O)C(C)(CN)CO)CC1)CC2 (single isomer, unassigned) [Example 184] | – | 7.28 | pIC50 [2, 7]: 8.40
17 | Cn1nc(C(=O)NCc2ccc(Cl)cc2)c2c1C(=O)N(CC1(S(=O)(=O)C(C)(CN)CO)CC1)CC2 (single isomer, unassigned) [Example 187] | 7.15 | 7.07 | –
18 | Cn1nc(C(=O)NCc2ccc(Cl)cc2)c2c1C(=O)N(CC1(S(=O)(=O)C(C)(CN)CO)CC1)CC2 (single isomer, unassigned) [Example 188] | 6.80 | 6.97 | –
19 | Cn1nc(C(=O)NCc2ccc(C#N)cc2)c2c1C(=O)N(CC1(S(=O)(=O)C(C)(C)C(O)C(C)(C)N)CC1)CC2 (single isomer, unassigned) [Example 211, (R)- or (S)-6-((1-((4-Amino-3-hydroxy-2,4-dimethylpentan-2-yl)sulfonyl)cyclopropyl)methyl)-N-(4-cyanobenzyl)-1-methyl-7-oxo-4,5,6,7-tetrahydro-1H-pyrazolo[3,4-c]pyridine-3-carboxamide] | 7.55 | – | –
20 | Cn1nc(C(=O)NCc2ccc(C#N)cc2)c2c1C(=O)N(CC1(S(=O)(=O)C(C)(C)C(O)C(C)(C)N)CC1)CC2 (single isomer, unassigned) [Example 212, (R)- or (S)-6-((1-((4-Amino-3-hydroxy-2,4-dimethylpentan-2-yl)sulfonyl)cyclopropyl)methyl)-N-(4-cyanobenzyl)-1-methyl-7-oxo-4,5,6,7-tetrahydro-1H-pyrazolo[3,4-c]pyridine-3-carboxamide] | 8.15 | – | –
21 | CC(O)Cn1nc(C(=O)NCc2ccc(C#N)cc2)c2c1C(=O)N(CC1(S(=O)(=O)C3CC3)CC1)CC2 (single isomer, unassigned) [Example 226, (R)- or (S)—N-(4-Cyanobenzyl)-6-((1-(cyclopropylsulfonyl)cyclopropyl)methyl)-1-(2-hydroxypropyl)-7-oxo-4,5,6,7-tetrahydro-1H-pyrazolo[3,4-c]pyridine-3-carboxamide] | 7.36 | – | –
22 | Cn1nc(C(=O)NCc2ccc(Cl)cc2)c2c1C(=O)N(CC1(S(=O)(=O)C(C)(CN)CO)CC1)CC2 (centres unmarked) [Example 186] | – | 7.43 | pEC50 ([1]; NN-NHDF cells, MOI of 1, 72 hrs, read-out: CMV-Luc Cellular EC50): 7.05
23 | Cn1nc(C(=O)NCc2ccc(C#N)cc2)c2c1C(=O)N(CC1(S(=O)(=O)C(C)(C)[C@H](O)CO)CC1)CC2 [Example 193, (R)—N-(4-cyanobenzyl)-6-((1-((3,4-dihydroxy-2-methylbutan-2-yl)sulfonyl)cyclopropyl)methyl)-1-methyl-7-oxo-4,5,6,7-tetrahydro-1H-pyrazolo[3,4-c]pyridine-3-carboxamide] | – | 7.96 | pEC50 ([1]; Human betaherpesvirus 5, AD169, 72 h, read-out: CMV-Luc Cellular EC50, NN-NHDF cells, MOI of 1, 72 hrs): 7.66
24 | CC1(S(=O)(=O)C2(CN3CCc4c(C(=O)NCc5ccc(C#N)cc5)nn(CCCO)c4C3=O)CC2)CC1 [Example 237, N-(4-Cyanobenzyl)-1-(3-hydroxypropyl)-6-((1-((1-methylcyclopropyl)sulfonyl)cyclopropyl)methyl)-7-oxo-4,5,6,7-tetrahydro-1H-pyrazolo[3,4-c]pyridine-3-carboxamide] | – | 7.39 | –
25 | CC(C)(CO)S(=O)(=O)C1(CN2CCc3c(C(=O)NCc4ccc(C#N)cc4)nn(CCOCCBr)c3C2=O)CC1 [Example 238, 1-(2-(2-Bromoethoxy)ethyl)-N-(4-cyanobenzyl)-6-((1-((1-hydroxy-2-methylpropan-2-yl)sulfonyl)cyclopropyl)methyl)-7-oxo-4,5,6,7-tetrahydro-1H-pyrazolo[3,4-c]pyridine-3-carboxamide] | – | 7.80 | –
